From patent US20250206761A1, “HALOINDOLE MACROCYCLIC COMPOUNDS FOR THE TREATMENT OF CANCER” (Hoffmann-La Roche Inc., priority 2022, published 2025)

What was measured:
[1] = target: KRAS G12C-BRAF complex (Homo sapiens (Human), UniProt P01116+P62937, G12C); experiment: KRAS-BRAF with CYPA (500 nM) interaction assay (TR-FRET), G12C; assay type: biochemical
Description: (§1) In this example, TR-FRET was also used to measure the compound or compound-CYPA dependent disruption of the KRAS G12C-BRAF complex. This protocol was also used to measure disruption of KRAS G12D or KRAS G12V binding to BRAF by a compound of the invention, respectively. In assay buffer containing 25 mM HEPES PH=7.4 (4-(2-hydroxyethyl)-1-piperazineethanesulfonic acid, Thermo, 15630080), 0.002% Tween20, 0.1% BSA, 100 mM NaCl, 5 mM MgCl2, 10 μM GMPPNP (Guanosine 5′-[β,γ-imido]triphosphate trisodium salt hydrate, Sigma, G0635), […] 384-well assay plate at final concentrations of 50 nM, 6.25 nM and 1 nM, respectively. Compound was present in plate wells as a 16-point 3-fold dilution series starting at a final concentration of 10 μM and incubated for 3 hours. A mixture of MAb Anti-6His-XL665 (Cisbio, 61HISXLB) and Mab anti-GST-TB cryptate (Cisbio, 61GSTTLB) was then added at a final concentration of 6.67 nM and 0.21 nM, respectively, and the plate was incubated for an additional 1.5 hours. TR-FRET signal was read on a PHERstar FSX microplate reader (Ex320 nm, Em 665/615 nm). Compounds that facilitate disruption of the KRAS-BRAF complex were identified as those eliciting a decrease in the TR-FRET ratio relative to DMSO control wells.

[2] = target: KRAS G12D binding to BRAF (Homo sapiens (Human), UniProt P01116+P62937, G12D); experiment: KRAS-BRAF with CYPA (500 nM) interaction assay (TR-FRET), G12D; assay type: biochemical
Description: as §1

[3] = system: SW620 (ATCC-CCL-227); experiment: Cell viability assay, G12V (SW620); assay type: cell-based, human; settings: KRAS cell viability, SW620, 72 hrs, Cell Counting Kit-8
Description: (§2) The purpose of this cellular assay was to determine the effects of test compounds on the proliferation of human cancer cell lines NCI-H358 (ATCC-CRL5807) cells, AGS (ATCC-CRL-1739) cells, SW620 (ATCC-CCL-227) over a 3-day treatment period by quantifying the amount of NADPH present at endpoint using Cell Counting Kit-8.
(§3) Cells were seeded at 5,000 cells/well (NCI-H358), 2,000 cells/well (AGS) 2,000 cells/well (SW620) in 96-well assay plates (Corning-3699) and incubated overnight. On the day of the assay, diluted compounds were then added in a final concentration of 0.5% DMSO. After 72 hrs incubation, a tenth of the volume of cell counting kit 8 (Dnjindo-CK04) was added into each well. Read the signal (OD450 minus OD650) using EnVision after 2 hrs incubation. IC50 was determined by fitting a 4-parameter sigmoidal concentration response model.

[4] = system: AGS (ATCC-CRL-1739) cells; experiment: Cell viability assay, G12D (AGS); assay type: cell-based, human; settings: KRAS cell viability, 72 hrs, Cell Counting Kit-8
Description: as §2, §3

[5] = target: KRAS G12V binding to BRAF (Homo sapiens (Human), UniProt P01116+P62937, G12V); experiment: KRAS-BRAF with CYPA (500 nM) interaction assay (TR-FRET), G12V; assay type: biochemical
Description: In this example, TR-FRET was also used to measure the compound or compound-CYPA dependent disruption of the KRAS G12C-BRAF complex. This protocol was also used to measure disruption of KRAS G12D or KRAS G12V binding to BRAF by a compound of the invention, respectively. In assay buffer containing 25 mM HEPES PH=7.4 (4-(2-hydroxyethyl)-1-piperazineethanesulfonic acid, Thermo, 15630080), 0.002% Tween20, 0.1% BSA, 100 mM NaCl, 5 mM MgCl2, 10 μM GMPPNP (Guanosine 5′-[β,γ-imido]triphosphate trisodium salt hydrate, Sigma, G0635), […], GMPPNP loaded 6His-KRAS proteins, and […], 6.25 nM and 1 nM, respectively. Compound was present in plate wells as a 16-point 3-fold dilution series starting at a final concentration of 10 μM and incubated for 3 hours. A mixture of MAb Anti-6His-XL665 (Cisbio, 61HISXLB) and Mab anti-GST-TB cryptate (Cisbio, 61GSTTLB) was then added at a final concentration of 6.67 nM and 0.21 nM, respectively, and the plate was incubated for an additional 1.5 hours. TR-FRET signal was read on a PHERstar FSX microplate reader (Ex320 nm, Em 665/615 nm). Compounds that facilitate disruption of the KRAS-BRAF complex were identified as those eliciting a decrease in the TR-FRET ratio relative to DMSO control wells.

[6] = system: phosphorylation of ERK, KRAS G12C in NCJ-H358 cells; experiment: pERK inhibition assay, KRAS G12C; assay type: cell-based, human; settings: Homo sapiens, 4 hours
Description: (§4) This assay is to measure the ability of test compounds in inhibiting the phosphorylation of ERK, the downstream signaling of KRAS G12C in NCJ-H358 cells, KRAS G12D in AGS cells, and KRAS G12V in SW620. NCJ-H358 (ATCC-CRL5807) cells, AGS (ATCC-CRL-1739) cells, SW620 (ATCC-CCL-227) cells were all grown and maintained using RPMI-1640 medium (Thermo Fisher Scientific) with 10% fetal bovine serum and 1% penicillin/streptomycin. On the day prior to compound addition, cells were plated in tissue culture-treated 96 well plates (Corning-3699) at a density of 30,000 cell/well, 20,000 cell/well, 30,000 cell/well for NCJ-H358, AGS and SW620 respectively, and allowed for attachment overnight. Diluted compounds were then added in a final concentration of 0.5% DMSO. After 4 hours of incubation, the medium was removed, 100 μL of 4% formaldehyde was added, and the assay plates were incubated at room temperature for 20 minutes. The plates were then washed once with phosphate buffered saline (PBS), and permeabilized with 100 μL of chilled methanol for 10 minutes. Non-specific antibody binding to the plates was blocked using 50 μL 1×BSA blocking buffer (Thermo-37520, 10-fold dilution by Phosphate-Buffered Saline Tween (PBST) for at least 1 hour at room temperature.
(§5) The amount of phosphor-ERK was determined using an antibody specific for phosphorylated form of ERK. Primary antibody (pERK, CST-4370, Cell Signaling Technology) was diluted 1:300 in blocking buffer, with 50 μL aliquoted to each well, and incubated overnight at 4′° C. Cells was washed five times for 5 minutes with PBST. Secondary antibody ([…] anti-rabbit IgG, CST-7074, Cell Signaling Technology) was diluted 1:1000 in blocking buffer, and 50 μL was added to each well and incubated 1-2 hrs at room temperature. Cells was washed 5 times for 5 minutes with PBST, 100 μL TMB ELISA substrate (abcam-ab171523) were added and gently shake for 20 minutes. 50 μL stop solution (abcam-ab171529) were added, and then read the signal (OD450) by EnVision.
(§6) IC50 was determined by fitting a 4-parameter sigmoidal concentration response model.

[7] = system: phosphorylation of ERK, KRAS G12V in SW620; experiment: pERK inhibition assay, KRAS G12V; assay type: cell-based, human; settings: Homo sapiens, SW-620, SW620, 4 hours
Description: as §4, §5, §6

Sequence of KRAS G12C-BRAF complex (P01116-2 other isoform, or with tags, fused parts or gaps G12C): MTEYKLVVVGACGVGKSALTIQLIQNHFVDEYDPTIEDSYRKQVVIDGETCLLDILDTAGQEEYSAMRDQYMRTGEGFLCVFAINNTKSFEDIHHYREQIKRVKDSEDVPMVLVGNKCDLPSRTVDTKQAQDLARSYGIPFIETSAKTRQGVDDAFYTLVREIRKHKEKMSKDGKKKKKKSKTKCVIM
Sequence of KRAS G12C-BRAF complex (P62937 whole entry): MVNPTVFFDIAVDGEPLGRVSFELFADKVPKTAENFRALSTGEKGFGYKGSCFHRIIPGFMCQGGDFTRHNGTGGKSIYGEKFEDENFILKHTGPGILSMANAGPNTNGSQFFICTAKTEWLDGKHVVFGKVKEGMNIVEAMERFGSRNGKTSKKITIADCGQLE
Sequence of KRAS G12V binding to BRAF (P01116-2 other isoform, or with tags, fused parts or gaps G12V): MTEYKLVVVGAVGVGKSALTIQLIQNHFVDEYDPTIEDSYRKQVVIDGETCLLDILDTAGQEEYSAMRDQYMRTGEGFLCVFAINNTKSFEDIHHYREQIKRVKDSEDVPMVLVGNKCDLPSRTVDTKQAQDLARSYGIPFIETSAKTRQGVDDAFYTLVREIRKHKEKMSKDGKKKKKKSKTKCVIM
Sequence of KRAS G12V binding to BRAF (P62937 whole entry): as the sequence (P62937 whole entry) above
Sequence of KRAS G12D binding to BRAF (P01116-2 other isoform, or with tags, fused parts or gaps G12D): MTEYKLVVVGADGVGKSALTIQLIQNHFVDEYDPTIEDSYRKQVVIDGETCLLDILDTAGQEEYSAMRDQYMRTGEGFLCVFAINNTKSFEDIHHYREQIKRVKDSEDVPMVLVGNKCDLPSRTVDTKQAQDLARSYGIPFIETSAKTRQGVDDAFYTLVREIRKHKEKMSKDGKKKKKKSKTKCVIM
Sequence of KRAS G12D binding to BRAF (P62937 whole entry): as the sequence (P62937 whole entry) above

SMILES: CO[C@@H](C)c1ncc(N2CCN(C)CC2)cc1-c1c2c3cc(c(F)cc3n1CC(F)(F)F)-c1csc(n1)C[C@H](NC(=O)[C@H](C(C)C)N1CCC3(CN(C(=O)[C@H](F)Cl)C3)C1=O)C(=O)N1CCC[C@H](N1)C(=O)OCC(C)(C)C2 (atropisomer, axis not shown) [Example 25, (2S)-2-[2-[(2R)-2-chloro-2-fluoro-acetyl]-5-oxo-2,6-diazaspiro[3.4]octan-6-yl]-N-[(7S,13S)-24-fluoro-20-[2-[(1S)-1-methoxyethyl]-5-(4-methylpiperazin-1-yl)-3-pyridyl]-17,17-dimethyl-8,14-dioxo-21-(2,2,2-trifluoroethyl)-15-oxa-4-thia-9,21,27,28-tetrazapentacyclo[17.5.2.1^2,5.1^9,13.0^22,26]octacosa-1(25),2,5(28),19,22(26),23-hexaen-7-yl]-3-methyl-butanamide]
- IC50 [1]: 98 nM
- IC50 [2]: 6.06 µM
- IC50 ([3]; Homo sapiens, SW-620): 89 nM
- IC50 ([4]; Homo sapiens): 1650 nM
- IC50 [5]: 3.54 µM

SMILES: CCn1c(-c2cc(N3CCN(C)CC3)cnc2[C@H](C)OC)c2c3cc(c(F)cc31)-c1csc(n1)C[C@H](NC(=O)[C@H](COC1CN(C(=O)[C@H](F)Cl)C1)C(C)C)C(=O)N1CCC[C@H](N1)C(=O)OCC(C)(C)C2 (atropisomer, axis not shown; (M)) [Example 41, (2S)-2-[[1-[(2R)-2-chloro-2-fluoro-acetyl]azetidin-3-yl]oxymethyl]-N-[(7S,13S)-21-ethyl-24-fluoro-(20M)-20-[2-[(1S)-1-methoxyethyl]-5-(4-methylpiperazin-1-yl)-3-pyridyl]-17,17-dimethyl-8,14-dioxo-15-oxa-4-thia-9,21,27,28-tetrazapentacyclo[17.5.2.1^2,5.1^9,13.0^22,26]octacosa-1(25),2,5(28),19,22(26),23-hexaen-7-yl]-3-methyl-butanamide]
- IC50 [1]: 88 nM
- IC50 [2]: > 10 µM
- IC50 [6]: 107 nM
- IC50 [7]: 199 nM
- IC50 [5]: 1.17 µM

SMILES: CCn1c(-c2cc(N3CCN(CC(F)(F)F)CC3)cnc2[C@H](C)OC)c2c3cc(c(F)cc31)-c1csc(n1)C[C@H](NC(=O)[C@H](C(C)C)N1CCCC3(CCN(C(=O)[C@H](F)Cl)CC3)C1=O)C(=O)N1CCC[C@H](N1)C(=O)OCC(C)(C)C2 (atropisomer, axis not shown; (M)) [Example 48, (2S)-2-[9-[(2R)-2-chloro-2-fluoro-acetyl]-1-oxo-2,9-diazaspiro[5.5]undecan-2-yl]-N-[(7S,13S)-21-ethyl-24-fluoro-(20M)-20-[2-[(1S)-1-methoxyethyl]-5-[4-(2,2,2-trifluoroethyl)piperazin-1-yl]-3-pyridyl]-17,17-dimethyl-8,14-dioxo-15-oxa-4-thia-9,21,27,28-tetrazapentacyclo[17.5.2.1^2,5.1^9,13.0^22,26]octacosa-1(25),2,5(28),19,22(26),23-hexaen-7-yl]-3-methyl-butanamide]
- IC50 [1]: 47 nM
- IC50 [2]: 1.03 µM
- IC50 [6]: 2 nM
- IC50 [7]: 12 nM
- IC50 [5]: > 10 µM

SMILES: CCn1c(-c2cc(N3CCOCC3)cnc2[C@H](C)OC)c2c3cc(c(F)cc31)-c1csc(n1)C[C@H](NC(=O)[C@H](C(C)C)N1CCC3(CCN(C(=O)[C@H](F)Cl)CC3)C1=O)C(=O)N1CCC[C@H](N1)C(=O)OCC(C)(C)C2 (atropisomer, axis not shown; (M)) [Example 50, (2S)-2-[8-[(2R)-2-chloro-2-fluoro-acetyl]-1-oxo-2,8-diazaspiro[4.5]decan-2-yl]-N-[(7S,13S)-21-ethyl-24-fluoro-(20M)-20-[2-[(1S)-1-methoxyethyl]-5-morpholino-3-pyridyl]-17,17-dimethyl-8,14-dioxo-15-oxa-4-thia-9,21,27,28-tetrazapentacyclo[17.5.2.1^2,5.1^9,13.0^22,26]octacosa-1(25),2,5(28),19,22(26),23-hexaen-7-yl]-3-methyl-butanamide]
- IC50 [1]: 124 nM
- IC50 [2]: > 10 µM
- IC50 [6]: 6 nM
- IC50 [7]: 6 nM
- IC50 [5]: > 10 µM

SMILES: CCn1c(-c2cc(N3CCN(C)CC3)cnc2[C@H](C)OC)c2c3cc(c(F)cc31)-c1csc(n1)C[C@H](NC(=O)[C@H](C(C)C)N1CCC[C@]3(CCN(C(=O)[C@@H](F)Cl)C3)C1=O)C(=O)N1CCC[C@H](N1)C(=O)OCC(C)(C)C2 [Example 23, (2S)-2-[(5S)-2-[(2S)-2-chloro-2-fluoro-acetyl]-6-oxo-2,7-diazaspiro[4.5]decan-7-yl]-N-[(7S,13S)-21-ethyl-24-fluoro-(20M)-20-[2-[(1S)-1-methoxyethyl]-5-(4-methylpiperazin-1-yl)-3-pyridyl]-17,17-dimethyl-8,14-dioxo-15-oxa-4-thia-9,21,27,28-tetrazapentacyclo[17.5.2.1^2,5.1^9,13.0^22,26]octacosa-1(25),2,5(28),19,22(26),23-hexaen-7-yl]-3-methyl-butanamide]
- IC50 [1]: 64 nM
- IC50 [2]: 2.08 µM
- IC50 [3]: 90 nM
- IC50 [4]: 322 nM
- IC50 [5]: 5.39 µM
